Target: HLA-C*14:02 (Homo sapiens, UniProt P10321, A176E/A330V/A35S/A97T/C350S/D114A/D33S/L171W/L180R/L218V/M285V/M309V/M331V/P208H/Q277E/Q291P/R121W/R243W/S123F/S297R/S48A/T329A/T363A/V319A)
Assay: LC-MS/MS identification of HLA-bound HIV-1 peptides from NL4-3-infected .221-C1402 cells
Type: binding
Set-up: key: ●: Closed circles indicate the peptide which was identified in HLA-C*1402 or/and -C*1403 expressing cells
Settings: HIV-1 NL4-3-infected .221-C1402 cells, W6/32 immunoprecipitation, two independent replicate experiments
Protocol: 721.221 cells expressing CD4 and HLA-C*14:02 (.221-C1402) or HLA-C*14:03 (.221-C1403) were infected with the laboratory-adapted NL4-3 HIV-1 strain. HLA-peptide complexes were isolated from cell lysates by immunoprecipitation with the anti-HLA class I antibody W6/32; then, peptides were eluted, fractionated by high-performance liquid chromatography (HPLC), and finally analyzed by LC-MS/MS. Two independent replicate experiments were performed, in which a total of 7,970 and 8,447 unique 8- to 13-mer peptide sequences were identified from .221-C1402 and .221-C1403 cells, respectively (Fig. 1A). Of these peptides, 6,163 were identified in both the C*14:02- and C*14:03-bound peptide data sets, while other peptides were detected in the acid-eluted fraction from only a single allele. […] These motifs are consistent with the HLA-C*1402/03 peptide motifs previously estimated using reported epitopes ([29]).
.221-C1402 and .221-C1403 cells were infected with HIV-1 NL4-3 in a low volume of RPMI 1640 medium (Thermo Fisher) containing 10% fetal bovine serum (FBS), 2 mM L-glutamine, 100 U/mL penicillin, 100 μg/mL streptomycin, and 10 mM HEPES (R10). Fifty microliters of NL4-3 stock virus (Reverse transcriptase activity (RT) value = 4 × 10^2 ng/mL) was added to 8 × 10^6 .221-C1402 cells or .221-C1403, and the cells were then incubated for 1.5 h at 37°C, after which 20 mL of R10 was added and the cells were cultured overnight. At day 1 postinfection, a further 20 mL R10 was added, and cells were split (1:2) on day 2. On day 3 postinfection, the proportion of cells infected with HIV-1 was determined by intracellular p24 staining, as previously described ([46]). Infected flasks were then harvested for immunoprecipitation of HLA-peptide complexes.
.221-C1402 cells or .221-C1403 cells infected with NL4-3 (1.5 × 10^8 to 2 × 10^8 cells) were harvested, washed in phosphate-buffered saline (PBS), and lysed in 5 mL of lysis buffer (1% IGEPAL 630, 300 mM NaCl, 100 mM Tris [pH 8.0], plus protease inhibitors) at 4°C for 45 min. Two centrifugation steps (2,000 × g for 10 min followed by 20,000 × g for 30 min at 4°C) were next employed to clear the lysates of cell debris prior to overnight capture of HLA-peptide complexes on W6/32-coated protein A‐Sepharose beads. W6/32-bound HLA-peptide complexes were sequentially washed with 10 to 20 mL of wash buffer 1 (0.005% IGEPAL, 50 mM Tris [pH 8.0], 150 mM NaCl, 5 mM EDTA), wash buffer 2 (50 mM Tris [pH 8.0], 150 mM NaCl), wash buffer 3 (50 mM Tris [pH 8.0], 400 mM NaCl), and finally wash buffer 4 (50 mM Tris [pH 8.0]) under gravity flow in Econo-Column glass chromatography columns (Bio-Rad). Peptide-HLA complexes were eluted from the beads with 5 mL of 10% acetic acid and, after drying under vacuum, were loaded onto a 4.6- by 50-mm ProSwift RP-1S column (Thermo Fisher Scientific) and eluted from an Ultimate 3000 HPLC system (Thermo Scientific) using a 500-μL/min flow rate over 10 min from 2% to 34% buffer B (0.1% trifluoroacetic acid [TFA] in acetonitrile) in buffer A (0.1% TFA in water). Alternate fractions were pooled to give two final peptide fractions that were dried for LC-MS/MS analysis.
Each HPLC-eluted sample was resuspended in 20 μL loading buffer, and 9 μL of it was injected onto a 3-μm-particle-size 0.075-mm by 150-mm Acclaim PepMap RSLC C18 column and further loaded onto a 2-μm-particle-size, 75-μm by 50-cm Acclaim PepMap RSLC C18 column using an Ultimate 3000 nUPLC system (Thermo Scientific). A linear gradient of 3 to 25% buffer B (0.1% formic acid, 5% dimethyl sulfoxide [DMSO] in acetonitrile) in buffer A (0.1% formic acid, 5% DMSO in water) was applied over 1 h to elute peptides from the column (flow rate of […]). Peptides were introduced, using an Easy-Spray source at 2,000 V at 40°C, into a Fusion Lumos mass spectrometer (Thermo Scientific). The ion transfer tube temperature was set to 305°C. […]

Sequence	C1402: peptide identified by LC-MS/MS in HLA-I eluate
AFHHVAREL [Nef AL9]	●
AFSPEVIPM [Gag AM9]	●
FLGAAGSTM [Env FM9, HIV-1 NL4-3 Env 522–530 peptide …]	●
IYHTQGYF [Nef IF8]	●
KYHSNWRAM [Pol KM9]	●
LYNTIAVLY [Gag LY9]	●
RFDSRLAF [Nef RF8, HIV-1 NL4-3 Nef 184–191 peptide RFDSRLAF]	●
VYYDPSKDL [Pol VYL9, HIV-1 NL4-3 Pol 472–480 peptide …]	●
YFPDWQNYT [Nef YT9]	●

Reference: paper PMC9131871, “Impact of Micropolymorphism Outside the Peptide Binding Groove in the Clinically Relevant Allele HLA-C*14 on T Cell Responses in HIV-1 Infection” (Journal of Virology, 2022)
